Reference: PMC3226453, “Targeting the Wolbachia Cell Division Protein FtsZ as a New Approach for Antifilarial Therapy” (PLoS Neglected Tropical Diseases, 2011)
pIC50: −log10 of the molar value.

Key:
Ec-FtsZ [1] = target: T1, Ec-FtsZ (Escherichia coli, UniProt P0A9A6); assay: enzyme-coupled GTPase assay, dose response; type: biochemical
T1 construct: N-terminal His tag, from strain MG1655
T1 sequence (P0A9A6 1-383): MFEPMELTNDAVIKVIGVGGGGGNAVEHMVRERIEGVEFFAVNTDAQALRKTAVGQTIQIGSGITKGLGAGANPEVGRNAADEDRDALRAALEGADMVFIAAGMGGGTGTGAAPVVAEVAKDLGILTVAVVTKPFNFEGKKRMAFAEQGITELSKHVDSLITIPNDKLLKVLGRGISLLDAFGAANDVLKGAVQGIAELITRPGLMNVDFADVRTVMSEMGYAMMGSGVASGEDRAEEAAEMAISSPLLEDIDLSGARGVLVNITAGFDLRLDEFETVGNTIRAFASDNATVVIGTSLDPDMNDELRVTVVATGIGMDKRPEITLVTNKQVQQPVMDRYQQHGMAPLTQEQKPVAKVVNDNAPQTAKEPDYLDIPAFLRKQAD

Ec-FtsZ [2] = target: T1, Ec-FtsZ; assay: enzyme-coupled GTPase assay, specific activity; type: biochemical
Ec-FtsZ [3] = target: T1, Ec-FtsZ; assay: enzyme-coupled (PK/LDH, NADH) GTPase assay; type: biochemical
(UniProt Q5GS34) = target: T2, (UniProt Q5GS34); assay: enzyme-coupled (PK/LDH, NADH) GTPase assay; type: biochemical, Wolbachia endosymbiont of Brugia malayi
T2 construct: gene ftsZ; full-length, N-terminal His6 tag
T2 sequence (Q5GS34 1-396 limits assumed): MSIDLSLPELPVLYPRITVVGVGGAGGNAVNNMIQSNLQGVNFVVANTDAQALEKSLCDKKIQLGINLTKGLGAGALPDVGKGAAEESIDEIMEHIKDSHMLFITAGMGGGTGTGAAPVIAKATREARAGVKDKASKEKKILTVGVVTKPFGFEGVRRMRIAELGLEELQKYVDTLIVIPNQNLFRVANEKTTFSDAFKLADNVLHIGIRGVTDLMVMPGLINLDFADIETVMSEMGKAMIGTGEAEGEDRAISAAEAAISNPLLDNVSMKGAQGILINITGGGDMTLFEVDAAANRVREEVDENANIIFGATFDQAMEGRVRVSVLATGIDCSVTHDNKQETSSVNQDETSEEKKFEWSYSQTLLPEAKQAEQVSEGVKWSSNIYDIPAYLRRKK

COc1ccc(-c2ccc(C(C(=O)NC3CCCCC3)N(Cc3ccccn3)C(=O)c3ccccc3)cc2)cc1 (centres unmarked) [AV-C6]
enzyme-coupled GTPase assay, dose response (Ec-FtsZ [1]): both compounds inhibited Ec-FtsZ activity although each was slightly less potent

Nc1nc2c(ncn2[C@@H]2O[C@H](COP(=O)(O)OP(=O)(O)OP(=O)(O)O)[C@@H](O)[C@H]2O)c(=O)[nH]1 [GTP]
enzyme-coupled GTPase assay, specific activity (Ec-FtsZ [2]): 0.22 ± 0.015 µmol/min/mg

CCCCNC(=O)C(c1ccc2cc(O)ccc2c1)N(Cc1ccc(Cl)cc1)C(=O)CCC (centres unmarked) [N938]
enzyme-coupled GTPase assay, dose response (Ec-FtsZ [1]): both compounds inhibited Ec-FtsZ activity although each was slightly less potent

COc1ccc2cc3[n+](cc2c1OC)CCc1cc2c(cc1-3)OCO2 [berberine]
pIC50 (Ec-FtsZ [3]): 3.62
pIC50 ((UniProt Q5GS34)): 3.49
